The compounds below were run on MDA-231 cancer cells (assay: Inhibition of proliferation assay: cell confluence (IncuCyte imaging)). Details: compound at 10 uM; MDA-231 cells; IncuCyte images every 3 h over 4-5 d; relative confluence normalised to time zero.
Assay type: cell-based
Source text: Inhibition of Proliferation Assay
The confluence value is a surrogate for cell proliferation and growth. The value is expressed as a percent confluence, which represents the fraction of culture dish-surface that is occupied by cells. As the number of cells in the dish increases over time due to proliferation, so will their coverage of that surface increase. Expansion of the cell population on the cell culture-dish surface and confluence have mostly a linear relationship until the cells on the plate surface begin to reach saturation or maximum density.
Confluence is determined based on image analysis. Image based software can identify objects in the image field base on changes to pixel density in a grey scale image. The software can then assign a mask to those pixels within the object. Objects can be ‘gated’ out based on size and shape. To determine cell confluence, images of cells are first masked as objects. The surface area of the image that is masked is measured and compared to the total surface area of the culture dish surface to obtain a percent confluence.
MDA-231 cancer cells were obtained from ATCC. Cells were cultured in Dulbecco's Modified Eagle Medium (DMEM) supplemented with 10% Fetal Bovine Serum (FBS), 2 mM Glutamax, 1 mM Non Essential Amino Acid (NEAA) solution and 1 mM sodium pyruvate. […] Final DMSO concentrations were […]. Images were acquired with an IncuCyte Live Cell Imaging microscopy (Essen Bioscience) at every 3 h under cell culture conditions with 10× objective over 4-5 d. Cell confluence was calculated from one field of view per well using the IncuCyte in-built algorithm. Relative confluence values were obtained by normalising each value to the time zero value in each sample.

Compound	% Confluence [%]
CC[C@H]1OC(=O)[C@H](C)[C@@H](O[C@H]2C[C@@](C)(OC)[C@@H](O)[C@H](C)O2)[C@H](C)[C@@H](O[C@@H]2O[C@H](C)C[C@H](N(C)C)[C@H]2O)[C@](C)(O)C[C@@H](C)CN(C(=O)CCCCCCCCCCC[P+](c2ccccc2)(c2ccccc2)c2cnn(C)c2)[C@H](C)[C@@H](O)[C@]1(C)O.[Cl-] [Example 28, {12-[(2R,3S,4R,5R,8R,10R,11R,12S,13S,14R)-11-{[(2S,3R,4S,6R)-4-(dimethylamino)-3-hydroxy-6-methyloxan-2-yl]oxy}-2-ethyl-3,4,10-trihydroxy-13-{[(2R,4R,5S,6S)-5-hydroxy-4-methoxy-4,6-dimethyloxan-2-yl]oxy}-3,5,8,10,12,14-hexamethyl-15-oxo-1-oxa-6-azacyclopentadecan-6-yl]-12-oxododecyl}(1-methyl-1H-pyrazol-4-yl)diphenylphosphonium chloride]	16
CC[C@H]1OC(=O)[C@H](C)[C@@H](O[C@H]2C[C@@](C)(OC)[C@@H](O)[C@H](C)O2)[C@H](C)[C@@H](O[C@@H]2O[C@H](C)C[C@H](N(C)C)[C@H]2O)[C@](C)(O)C[C@@H](C)CN(C(=O)CCCCCCCCCCC[PH](c2cc(C)cc(C)c2)(c2cc(C)cc(C)c2)c2cc(C)cc(C)c2)[C@H](C)[C@@H](O)[C@]1(C)O [Example 29, {12-[(2R,3S,4R,5R,8R,10R,11R,12S,13S,14R)-11-{[(2S,3R,4S,6R)-4-(dimethylamino)-3-hydroxy-6-methyloxan-2-yl]oxy}-2-ethyl-3,4,10-trihydroxy-13-{[(2R,4R,5S,6S)-5-hydroxy-4-methoxy-4,6-dimethyloxan-2-yl]oxy}-3,5,8,10,12,14-hexamethyl-15-oxo-1-oxa-6-azacyclopentadecan-6-yl]-12-oxododecyl}tris(3,5-dimethylphenyl)phosphonium chloride]	4.6
CC[C@H]1OC(=O)[C@H](C)[C@@H](O[C@H]2C[C@@](C)(OC)[C@@H](O)[C@H](C)O2)[C@H](C)[C@@H](O[C@@H]2O[C@H](C)C[C@H](N(C)C)[C@H]2O)[C@](C)(O)C[C@@H](C)CN(C(=O)CCCCCCCCCCC[PH](c2cccc(C)c2)(c2cccc(C)c2)c2cccc(C)c2)[C@H](C)[C@@H](O)[C@]1(C)O [Example 30, {12-[(2R,3S,4R,5R,8R,10R,11R,12S,13S,14R)-11-{[(2S,3R,4S,6R)-4-(dimethylamino)-3-hydroxy-6-methyloxan-2-yl]oxy}-2-ethyl-3,4,10-trihydroxy-13-{[(2R,4R,5S,6S)-5-hydroxy-4-methoxy-4,6-dimethyloxan-2-yl]oxy}-3,5,8,10,12,14-hexamethyl-15-oxo-1-oxa-6-azacyclopentadecan-6-yl]-12-oxododecyl}tris(3-methylphenyl)phosphonium chloride]	4.4
CC[C@H]1OC(=O)[C@H](C)[C@@H](O[C@H]2C[C@@](C)(OC)[C@@H](O)[C@H](C)O2)[C@H](C)[C@@H](O[C@@H]2O[C@H](C)C[C@H](N(C)C)[C@H]2O)[C@](C)(O)C[C@@H](C)CN(C(=O)CCCCCCCCCCC[PH](c2ccccc2)(c2ccccc2)C2COC2)[C@H](C)[C@@H](O)[C@]1(C)O [Example 32, {12-[(2R,3S,4R,5R,8R,10R,11R,12S,13S,14R)-11-{[(2S,3R,4S,6R)-4-(dimethylamino)-3-hydroxy-6-methyloxan-2-yl]oxy}-2-ethyl-3,4,10-trihydroxy-13-{[(2R,4R,5S,6S)-5-hydroxy-4-methoxy-4,6-dimethyloxan-2-yl]oxy}-3,5,8,10,12,14-hexamethyl-15-oxo-1-oxa-6-azacyclopentadecan-6-yl]-12-oxododecyl}(oxetan-3-yl)diphenylphosphonium chloride]	129
CC[C@H]1OC(=O)[C@H](C)[C@@H](O[C@H]2C[C@@](C)(OC)[C@@H](O)[C@H](C)O2)[C@H](C)[C@@H](O[C@@H]2O[C@H](C)C[C@H](N(C)C)[C@H]2O)[C@](C)(O)C[C@@H](C)CN(C(=O)CCCCCCCCCCC[PH](c2ccccc2)(c2ccccc2)C(C)C)[C@H](C)[C@@H](O)[C@]1(C)O [Example 33, {12-[(2R,3S,4R,5R,8R,10R,11R,12S,13S,14R)-11-{[(2S,3R,4S,6R)-4-(dimethylamino)-3-hydroxy-6-methyloxan-2-yl]oxy}-2-ethyl-3,4,10-trihydroxy-13-{[(2R,4R,5S,6S)-5-hydroxy-4-methoxy-4,6-dimethyloxan-2-yl]oxy}-3,5,8,10,12,14-hexamethyl-15-oxo-1-oxa-6-azacyclopentadecan-6-yl]-12-oxododecyl}diphenyl(propan-2-yl)phosphonium chloride]	5.6
CC[C@H]1OC(=O)[C@H](C)[C@@H](O[C@H]2C[C@@](C)(OC)[C@@H](O)[C@H](C)O2)[C@H](C)[C@@H](O[C@@H]2O[C@H](C)C[C@H](N(C)C)[C@H]2O)[C@](C)(O)C[C@@H](C)CN(C(=O)CCCCCCCCCCC[PH](CCOC)(c2ccccc2)c2ccccc2)[C@H](C)[C@@H](O)[C@]1(C)O [Example 34, {12-[(2R,3S,4R,5R,8R,10R,11R,12S,13S,14R)-11-{[(2S,3R,4S,6R)-4-(dimethylamino)-3-hydroxy-6-methyloxan-2-yl]oxy}-2-ethyl-3,4,10-trihydroxy-13-{[(2R,4R,5S,6S)-5-hydroxy-4-methoxy-4,6-dimethyloxan-2-yl]oxy}-3,5,8,10,12,14-hexamethyl-15-oxo-1-oxa-6-azacyclopentadecan-6-yl]-12-oxododecyl}(2-methoxyethyl)diphenylphosphonium chloride]	5.4
CC[C@H]1OC(=O)[C@H](C)[C@@H](O[C@H]2C[C@@](C)(OC)[C@@H](O)[C@H](C)O2)[C@H](C)[C@@H](O[C@@H]2O[C@H](C)C[C@H](N(C)C)[C@H]2O)[C@](C)(O)C[C@@H](C)CN(C(=O)CCCCCCCCCCC[PH](c2ccccc2)(c2ccccc2)C2CCOCC2)[C@H](C)[C@@H](O)[C@]1(C)O [Example 35, {12-[(2R,3S,4R,5R,8R,10R,11R,12S,13S,14R)-11-{[(2S,3R,4S,6R)-4-(dimethylamino)-3-hydroxy-6-methyloxan-2-yl]oxy}-2-ethyl-3,4,10-trihydroxy-13-{[(2R,4R,5S,6S)-5-hydroxy-4-methoxy-4,6-dimethyloxan-2-yl]oxy}-3,5,8,10,12,14-hexamethyl-15-oxo-1-oxa-6-azacyclopentadecan-6-yl]-12-oxododecyl}(oxan-4-yl)diphenylphosphonium chloride]	97.2
CC[C@H]1OC(=O)[C@H](C)[C@@H](O[C@H]2C[C@@](C)(OC)[C@@H](O)[C@H](C)O2)[C@H](C)[C@@H](O[C@@H]2O[C@H](C)C[C@H](N(C)C)[C@H]2OC(C)=O)[C@](C)(O)C[C@@H](C)CN(C)[C@H](C)[C@@H](OC(=O)NCCCCCCCCCC[P+](C)(C)c2ccccc2)[C@]1(C)O.[Br-] [Example 38, (2S,3R,4S,6R)-2-{[(2R,3R,4R,5R,8R,10R,11R,12S,13S,14R)-4-[({10-[dimethyl(phenyl)phosphoniumyl]decyl}carbamoyl)oxy]-2-ethyl-3,10-dihydroxy-13-{[(2R,4R,5S,6S)-5-hydroxy-4-methoxy-4,6-dimethyloxan-2-yl]oxy}-3,5,6,8,10,12,14-heptamethyl-15-oxo-1-oxa-6-azacyclopentadecan-11-yl]oxy}-4-(dimethylamino)-6-methyloxan-3-yl acetate bromide]	135
tris(4-chlorophenyl)({8-[(2R,3S,4R,5R,8R,10R,11R,12S,13S,14R)-11-{[(2S,3R,4S,6R)-4-(dimethylamino)-3-hydroxy-6-methyloxan-2-yl]oxy}-2-ethyl-3,4,10-trihydroxy-13-{[(2R,4R,5S,6S)-5-hydroxy-4-methoxy-4,6-dimethyloxan-2-yl]oxy}-3,5,8,10,12,14-hexamethyl-15-oxo-1-oxa-6-azacyclopentadecan-6-yl]-8-oxooctyl})phosphoniumhexafluorophosphate(V) [Example 4]	87.7

From patent US11427606B2, “Azithromycin derivatives containing a phosphonium ion as anticancer agents” (Rising Tide Foundation, priority 2017, dated 2022)
